Source: patent US20230391768A2, “IMIDAZOPYRIDINE DERIVATIVES AND AZA-IMIDAZOPYRIDINE DERIVATIVES AS JANUS KINASE 2 INHIBITORS AND USES THEREOF” (Dana-Farber Cancer Institute, Inc., priority 2018, published 2023)

Key:
Assay in all cases: KINOMEscan
Format in all cases: binding
[1] = target: STK33 (Homo sapiens (Human), UniProt Q9BYT3); details: read-out: percent of control
Protocol: (§1) In vitro profiling of Compound I-2 (1 μM) was performed using the DiscoveRx KINOMEscan® platform.

[2] = target: RAF1 (Homo sapiens (Human), UniProt P04049); details: read-out: percent of control
Protocol: as §1

[3] = target: BRSK2 (Homo sapiens (Human), UniProt Q8IWQ3); details: read-out: percent of control
Protocol: as §1

[4] = target: PIP5K2B (Homo sapiens (Human), UniProt P78356); details: read-out: percent of control
Protocol: as §1

[5] = target: TBK1 (Homo sapiens (Human), UniProt Q9UHD2); details: read-out: percent of control
Protocol: as §1

[6] = target: RIOK2 (Homo sapiens (Human), UniProt Q9BVS4); details: read-out: percent of control
Protocol: as §1

[7] = target: EPHA4 (Homo sapiens (Human), UniProt P54764); details: read-out: percent of control
Protocol: as §1

[8] = target: FGFR2 (Homo sapiens (Human), UniProt P21802); details: read-out: percent of control
Protocol: as §1

[9] = target: PLK4 (Homo sapiens (Human), UniProt O00444); details: read-out: percent of control
Protocol: as §1

[10] = target: JNK3 (Homo sapiens (Human), UniProt P53779); details: read-out: percent of control
Protocol: as §1

[11] = target: HIPK1 (Homo sapiens (Human), UniProt Q86Z02); details: read-out: percent of control
Protocol: as §1

[12] = target: CHEK2 (Homo sapiens (Human), UniProt O96017); details: read-out: percent of control
Protocol: as §1

[13] = target: ROCK1 (Homo sapiens (Human), UniProt Q13464); details: read-out: percent of control
Protocol: as §1

[14] = target: DYRK2 (Homo sapiens (Human), UniProt Q92630); details: read-out: percent of control
Protocol: as §1

[15] = target: YES (Homo sapiens (Human), UniProt P07947); details: read-out: percent of control
Protocol: as §1

[16] = target: DCAMKL3 (Homo sapiens (Human), UniProt Q9C098); details: read-out: percent of control
Protocol: as §1

[17] = target: MEK1 (Homo sapiens (Human), UniProt Q02750); details: read-out: percent of control
Protocol: as §1

[18] = target: TRKC (Homo sapiens (Human), UniProt Q16288); details: read-out: percent of control
Protocol: as §1

[19] = target: RSK2 (Kin.Dom.1-N-terminal) (Homo sapiens (Human), UniProt P51812); details: read-out: percent of control
Protocol: as §1

[20] = target: GRK1 (Homo sapiens (Human), UniProt Q15835); details: read-out: percent of control
Protocol: as §1

[21] = target: ERK4 (Homo sapiens (Human), UniProt P31152); details: read-out: percent of control
Protocol: as §1

[22] = target: ADCK4 (Homo sapiens (Human), UniProt Q96D53); details: read-out: percent of control
Protocol: as §1

[23] = target: NDR1 (Homo sapiens (Human), UniProt Q15208); details: read-out: percent of control
Protocol: as §1

[24] = target: EPHA7 (Homo sapiens (Human), UniProt Q15375); details: read-out: percent of control
Protocol: as §1

[25] = target: IKK-epsilon (Homo sapiens (Human), UniProt Q14164); details: read-out: percent of control
Protocol: as §1

[26] = target: LOK (Homo sapiens (Human), UniProt O94804); details: read-out: percent of control
Protocol: as §1

[27] = system: FLT3 (ITD,F691L); details: 1 μM
Protocol: as §1

[28] = target: FLT3-autoinhibited (Homo sapiens (Human), UniProt P36888); details: read-out: percent of control
Protocol: as §1

[29] = target: VEGFR2 (Homo sapiens (Human), UniProt P35968); details: read-out: percent of control
Protocol: as §1

[30] = target: MST2 (Homo sapiens (Human), UniProt Q13188); details: read-out: percent of control
Protocol: as §1

[31] = target: PLK3 (Homo sapiens (Human), UniProt Q9H4B4); details: read-out: percent of control
Protocol: as §1

[32] = target: ZAK (Homo sapiens (Human), UniProt Q9NYL2); details: read-out: percent of control
Protocol: as §1

[33] = target: HIPK2 (Homo sapiens (Human), UniProt Q9H2X6); details: read-out: percent of control
Protocol: as §1

[34] = target: GRK7 (Homo sapiens (Human), UniProt Q8WTQ7); details: read-out: percent of control
Protocol: as §1

[35] = target: LATS2 (Homo sapiens (Human), UniProt Q9NRM7); details: read-out: percent of control
Protocol: as §1

[36] = target: CAMK1B (Homo sapiens (Human), UniProt Q6P2M8); details: read-out: percent of control
Protocol: as §1

[37] = target: DAPK3 (Homo sapiens (Human), UniProt O43293); details: read-out: percent of control
Protocol: as §1

[38] = target: CSK (Homo sapiens (Human), UniProt P41240); details: read-out: percent of control
Protocol: as §1

[39] = target: MET(M1250T) (Homo sapiens (Human), UniProt P08581, M1250T); details: read-out: percent of control
Protocol: as §1

DAPK3, sequence (O43293 whole entry): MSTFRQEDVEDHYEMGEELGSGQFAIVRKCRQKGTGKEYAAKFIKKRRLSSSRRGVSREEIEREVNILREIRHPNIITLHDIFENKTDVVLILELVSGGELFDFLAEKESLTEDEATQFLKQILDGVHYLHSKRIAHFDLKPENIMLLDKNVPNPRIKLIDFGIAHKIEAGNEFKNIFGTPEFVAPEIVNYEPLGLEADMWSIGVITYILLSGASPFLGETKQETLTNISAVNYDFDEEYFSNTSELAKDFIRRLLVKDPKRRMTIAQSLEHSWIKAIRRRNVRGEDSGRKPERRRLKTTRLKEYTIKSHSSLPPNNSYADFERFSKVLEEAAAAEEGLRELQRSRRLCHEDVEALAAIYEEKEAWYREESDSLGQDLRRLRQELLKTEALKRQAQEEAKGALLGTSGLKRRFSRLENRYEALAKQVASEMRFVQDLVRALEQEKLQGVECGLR
IKK-epsilon, sequence (Q14164 whole entry): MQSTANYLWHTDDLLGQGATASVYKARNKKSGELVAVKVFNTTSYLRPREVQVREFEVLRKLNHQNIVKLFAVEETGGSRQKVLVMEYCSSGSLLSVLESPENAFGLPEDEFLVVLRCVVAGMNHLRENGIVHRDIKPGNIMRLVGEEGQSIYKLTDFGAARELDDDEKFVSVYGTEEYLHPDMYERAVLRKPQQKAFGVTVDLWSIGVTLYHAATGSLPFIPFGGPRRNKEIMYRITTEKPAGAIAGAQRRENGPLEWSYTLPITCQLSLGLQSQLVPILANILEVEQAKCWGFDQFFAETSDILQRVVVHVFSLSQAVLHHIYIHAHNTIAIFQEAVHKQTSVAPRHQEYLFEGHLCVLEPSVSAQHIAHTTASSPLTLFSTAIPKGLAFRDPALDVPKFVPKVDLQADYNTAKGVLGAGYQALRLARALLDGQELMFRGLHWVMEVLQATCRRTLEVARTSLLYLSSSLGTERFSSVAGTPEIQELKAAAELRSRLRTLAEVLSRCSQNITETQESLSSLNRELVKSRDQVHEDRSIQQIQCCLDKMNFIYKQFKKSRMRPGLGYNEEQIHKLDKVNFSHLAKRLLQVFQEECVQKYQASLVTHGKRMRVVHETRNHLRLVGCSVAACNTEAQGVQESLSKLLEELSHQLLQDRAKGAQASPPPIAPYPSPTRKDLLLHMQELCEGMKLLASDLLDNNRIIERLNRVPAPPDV
LATS2, sequence (Q9NRM7 whole entry): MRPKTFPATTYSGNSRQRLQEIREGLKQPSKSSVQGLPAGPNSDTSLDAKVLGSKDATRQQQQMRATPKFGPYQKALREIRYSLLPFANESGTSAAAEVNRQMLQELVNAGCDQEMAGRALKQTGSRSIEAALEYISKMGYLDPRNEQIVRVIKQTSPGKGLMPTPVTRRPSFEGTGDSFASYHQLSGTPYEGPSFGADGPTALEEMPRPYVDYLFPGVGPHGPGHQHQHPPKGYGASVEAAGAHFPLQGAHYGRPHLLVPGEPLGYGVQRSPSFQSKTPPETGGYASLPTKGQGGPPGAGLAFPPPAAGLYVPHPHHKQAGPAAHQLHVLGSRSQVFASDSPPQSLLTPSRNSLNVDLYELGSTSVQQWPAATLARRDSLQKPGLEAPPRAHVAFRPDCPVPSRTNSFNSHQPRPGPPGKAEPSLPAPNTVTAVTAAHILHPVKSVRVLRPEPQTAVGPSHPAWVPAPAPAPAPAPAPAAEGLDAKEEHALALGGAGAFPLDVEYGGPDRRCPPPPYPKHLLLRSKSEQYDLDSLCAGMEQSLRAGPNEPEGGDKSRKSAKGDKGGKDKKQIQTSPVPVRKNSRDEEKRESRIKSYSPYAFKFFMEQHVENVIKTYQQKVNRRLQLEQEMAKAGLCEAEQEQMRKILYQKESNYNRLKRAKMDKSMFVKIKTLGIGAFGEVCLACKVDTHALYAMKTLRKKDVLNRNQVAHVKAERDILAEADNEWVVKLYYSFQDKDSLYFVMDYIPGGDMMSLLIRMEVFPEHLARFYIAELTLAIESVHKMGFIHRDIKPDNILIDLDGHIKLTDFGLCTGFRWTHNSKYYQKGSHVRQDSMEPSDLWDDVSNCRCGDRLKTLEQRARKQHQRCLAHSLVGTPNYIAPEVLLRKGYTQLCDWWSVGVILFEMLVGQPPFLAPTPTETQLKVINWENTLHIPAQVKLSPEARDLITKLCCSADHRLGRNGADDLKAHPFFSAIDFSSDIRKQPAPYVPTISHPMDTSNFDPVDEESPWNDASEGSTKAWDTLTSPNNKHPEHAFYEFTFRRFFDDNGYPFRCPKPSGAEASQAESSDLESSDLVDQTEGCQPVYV
ADCK4, sequence (Q96D53 whole entry): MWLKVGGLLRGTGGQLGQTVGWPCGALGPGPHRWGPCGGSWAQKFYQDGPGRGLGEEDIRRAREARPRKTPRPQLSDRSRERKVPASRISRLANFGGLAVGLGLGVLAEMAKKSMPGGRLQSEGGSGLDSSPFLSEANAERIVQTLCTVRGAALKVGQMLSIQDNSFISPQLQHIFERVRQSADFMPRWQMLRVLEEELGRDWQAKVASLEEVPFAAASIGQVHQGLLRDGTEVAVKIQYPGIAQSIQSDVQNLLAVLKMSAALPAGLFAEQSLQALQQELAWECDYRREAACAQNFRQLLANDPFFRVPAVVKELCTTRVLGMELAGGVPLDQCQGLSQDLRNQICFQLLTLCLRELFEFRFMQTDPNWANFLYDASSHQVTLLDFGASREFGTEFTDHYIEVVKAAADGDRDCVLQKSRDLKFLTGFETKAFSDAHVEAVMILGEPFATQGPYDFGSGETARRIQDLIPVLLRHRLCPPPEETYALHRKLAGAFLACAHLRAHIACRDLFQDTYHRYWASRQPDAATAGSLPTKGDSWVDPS
EPHA7, sequence (Q15375 28-998): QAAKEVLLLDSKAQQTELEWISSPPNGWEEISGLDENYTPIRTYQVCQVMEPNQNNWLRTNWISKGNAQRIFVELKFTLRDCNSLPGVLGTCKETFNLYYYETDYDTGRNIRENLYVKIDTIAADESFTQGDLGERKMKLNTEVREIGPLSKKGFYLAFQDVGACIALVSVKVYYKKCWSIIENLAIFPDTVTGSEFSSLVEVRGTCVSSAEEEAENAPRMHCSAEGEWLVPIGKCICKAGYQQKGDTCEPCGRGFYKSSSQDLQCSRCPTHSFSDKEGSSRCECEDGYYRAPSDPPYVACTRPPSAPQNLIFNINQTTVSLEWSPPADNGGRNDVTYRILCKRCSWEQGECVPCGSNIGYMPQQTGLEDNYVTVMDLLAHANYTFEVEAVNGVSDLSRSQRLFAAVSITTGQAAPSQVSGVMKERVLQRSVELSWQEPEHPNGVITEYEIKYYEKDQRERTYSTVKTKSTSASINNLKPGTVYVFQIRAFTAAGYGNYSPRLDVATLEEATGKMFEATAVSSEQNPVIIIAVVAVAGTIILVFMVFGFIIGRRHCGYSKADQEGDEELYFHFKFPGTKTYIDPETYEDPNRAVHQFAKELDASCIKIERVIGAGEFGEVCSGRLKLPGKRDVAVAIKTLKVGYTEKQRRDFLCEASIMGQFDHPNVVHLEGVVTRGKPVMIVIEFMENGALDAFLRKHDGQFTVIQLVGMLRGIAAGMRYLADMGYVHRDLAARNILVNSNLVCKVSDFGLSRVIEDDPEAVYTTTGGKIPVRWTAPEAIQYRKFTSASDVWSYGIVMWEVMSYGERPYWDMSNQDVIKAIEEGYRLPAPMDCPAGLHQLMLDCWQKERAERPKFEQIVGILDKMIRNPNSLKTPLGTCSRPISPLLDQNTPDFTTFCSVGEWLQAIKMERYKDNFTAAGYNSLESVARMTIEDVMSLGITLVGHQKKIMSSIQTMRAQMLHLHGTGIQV
FLT3-autoinhibited, sequence (P36888 564-993 limits assumed): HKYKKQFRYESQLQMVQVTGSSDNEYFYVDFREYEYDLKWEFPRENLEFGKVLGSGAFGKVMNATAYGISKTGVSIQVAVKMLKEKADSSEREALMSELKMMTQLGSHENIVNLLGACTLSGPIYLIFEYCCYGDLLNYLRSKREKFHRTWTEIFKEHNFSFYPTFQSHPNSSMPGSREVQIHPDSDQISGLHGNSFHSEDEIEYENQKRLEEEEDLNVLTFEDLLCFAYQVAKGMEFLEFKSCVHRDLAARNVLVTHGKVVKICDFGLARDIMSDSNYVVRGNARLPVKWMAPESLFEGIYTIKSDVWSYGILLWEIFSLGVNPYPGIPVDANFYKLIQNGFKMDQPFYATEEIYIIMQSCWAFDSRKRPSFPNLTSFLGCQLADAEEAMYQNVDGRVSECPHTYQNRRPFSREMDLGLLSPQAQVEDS
FGFR2, sequence (P21802 22-821): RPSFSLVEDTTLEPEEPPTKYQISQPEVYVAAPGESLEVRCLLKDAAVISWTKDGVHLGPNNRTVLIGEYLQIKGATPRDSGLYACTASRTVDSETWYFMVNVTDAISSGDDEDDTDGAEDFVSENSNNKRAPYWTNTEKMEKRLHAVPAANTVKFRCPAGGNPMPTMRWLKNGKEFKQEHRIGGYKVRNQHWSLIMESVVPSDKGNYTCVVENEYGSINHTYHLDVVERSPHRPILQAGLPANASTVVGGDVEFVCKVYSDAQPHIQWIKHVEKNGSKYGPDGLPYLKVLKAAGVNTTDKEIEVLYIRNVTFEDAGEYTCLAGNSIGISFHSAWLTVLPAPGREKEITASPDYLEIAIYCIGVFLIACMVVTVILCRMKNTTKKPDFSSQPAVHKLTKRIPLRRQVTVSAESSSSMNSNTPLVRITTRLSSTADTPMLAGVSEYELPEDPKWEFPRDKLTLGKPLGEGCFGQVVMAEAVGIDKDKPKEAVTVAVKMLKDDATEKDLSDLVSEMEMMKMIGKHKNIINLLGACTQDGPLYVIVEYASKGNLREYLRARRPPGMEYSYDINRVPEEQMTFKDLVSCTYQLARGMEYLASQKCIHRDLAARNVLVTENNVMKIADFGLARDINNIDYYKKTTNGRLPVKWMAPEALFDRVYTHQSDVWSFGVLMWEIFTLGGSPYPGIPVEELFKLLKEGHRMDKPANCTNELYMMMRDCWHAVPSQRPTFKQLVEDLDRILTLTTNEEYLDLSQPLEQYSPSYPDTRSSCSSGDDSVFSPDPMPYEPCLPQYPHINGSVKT

Compound	remaining binding at 1 µM [1] [%]	remaining binding at 1 µM [2] [%]	remaining binding at 1 µM [3] [%]	remaining binding at 1 µM [4] [%]	remaining binding at 1 µM [5] [%]	remaining binding at 1 µM [6] [%]	remaining binding at 1 µM [7] [%]	remaining binding at 1 µM [8] [%]	remaining binding at 1 µM [9] [%]	remaining binding at 1 µM [10] [%]	remaining binding at 1 µM [11] [%]	remaining binding at 1 µM [12] [%]	remaining binding at 1 µM [13] [%]	remaining binding at 1 µM [14] [%]	remaining binding at 1 µM [15] [%]	remaining binding at 1 µM [16] [%]	remaining binding at 1 µM [17] [%]	remaining binding at 1 µM [18] [%]	remaining binding at 1 µM [19] [%]	remaining binding at 1 µM [20] [%]	other results
CCN1CCN(Cc2cc(NC(=O)c3ccc(C)c(-c4ccc5nc(NC(=O)C6CC6)cn5n4)c3)cc(C(F)(F)F)c2)CC1 [Compound I-2, 3-(2-(cyclopropanecarboxamido)imidazo[1,2-b]pyridazin-6-yl)-N-(3-((4-ethylpiperazin-1-yl)methyl)-5-(trifluoromethyl)phenyl)-4-methylbenzamide]	70	13	93	93	75	100	0	67	81	85	62	90	86	95	4.7	91	92	0.05	88	91	remaining binding at 1 µM [21]: 96%; remaining binding at 1 µM [22]: 75%; remaining binding at 1 µM [23]: 100%; remaining binding at 1 µM [24]: 3.3%; remaining binding at 1 µM [25]: 80%; remaining binding at 1 µM [26]: 0%; percent of control [27]: 12%; remaining binding at 1 µM [28]: 56%; remaining binding at 1 µM [29]: 1.4%; remaining binding at 1 µM [30]: 50%; remaining binding at 1 µM [31]: 100%; remaining binding at 1 µM [32]: 2.3%; remaining binding at 1 µM [33]: 93%; remaining binding at 1 µM [34]: 100%; remaining binding at 1 µM [35]: 79%; remaining binding at 1 µM [36]: 49%; remaining binding at 1 µM [37]: 93%; remaining binding at 1 µM [38]: 39%; remaining binding at 1 µM [39]: 9.9%
CCN1CCN(Cc2cc(NC(=O)c3ccc(C)c(-c4ccc5nc(NC(=O)C6CC6)cn5c4)c3)cc(C(F)(F)F)c2)CC1 [Compound I-6, 3-(2-(cyclopropanecarboxamido)imidazo[1,2-a]pyridin-6-yl)-N-(3-((4-ethylpiperazin-1-yl)methyl)-5-(trifluoromethyl)phenyl)-4-methylbenzamide]	100	18	71	86	96	94	0	57	95	93	96	93	100	92	1.6	96	94	0.05	78	93	remaining binding at 1 µM [21]: 100%; remaining binding at 1 µM [22]: 91%; remaining binding at 1 µM [23]: 85%; remaining binding at 1 µM [24]: 2%; remaining binding at 1 µM [25]: 87%; remaining binding at 1 µM [26]: 0%; percent of control [27]: 34%; remaining binding at 1 µM [28]: 58%; remaining binding at 1 µM [29]: 2%; remaining binding at 1 µM [30]: 97%; remaining binding at 1 µM [31]: 100%; remaining binding at 1 µM [32]: 6.2%; remaining binding at 1 µM [33]: 94%; remaining binding at 1 µM [34]: 97%; remaining binding at 1 µM [35]: 85%; remaining binding at 1 µM [36]: 97%; remaining binding at 1 µM [37]: 100%; remaining binding at 1 µM [38]: 21%; remaining binding at 1 µM [39]: 42%
